For orientation: Ki means the equilibrium dissociation constant of an inhibitor or competing ligand from its target.

For one experiment, the target named is T1, human CB2 receptors (Homo sapiens, UniProt P34972).
T1 construct: expressed in transfected cells; host or cells: HEK293
As to the kind of experiment: human CB2 radioligand binding assay ([3H]CP 55,940 competition). The following applies: HEK293 membranes, 0.5 nM [3H]CP 55,940. As for the experimental part:
(§1) The CB1 and CB2 radioligand binding assays described herein are utilized to ascertain the affinity of compounds of the present application for binding to CB2 relative to CB1 receptors.
HEK293 cells stably expressing human CB2 receptors were grown until a confluent monolayer was formed. Briefly, the cells were harvested and homogenized in TE buffer (50 mM Tris-HCl, 1 mM MgCl2, and 1 mM EDTA) using a polytron for 2×10 second bursts in the presence of protease inhibitors, followed by centrifugation at 45,000×g for 20 minutes. The final membrane pellet was re-homogenized in storage buffer (50 mM Tris-HCl, 1 mM MgCl2, and 1 mM EDTA and 10% sucrose) and frozen at −78° C. until used. Saturation binding reactions were initiated by the addition of membrane preparation (protein concentration of 5 μg/well for human CB2) into wells of a deep well plate containing [^3H]CP 55,940 (120 Ci/mmol, a nonselective CB agonist commercially available from Tocris) in assay buffer (50 mM Tris, 2.5 mM EDTA, 5 mM MgCl2, and 0.5 mg/mL fatty acid free BSA, pH 7.4). After 90 min incubation at 30° C., binding reaction was terminated by the addition of 300 μL/well of cold assay buffer followed by rapid vacuum filtration through a UniFilter-96 GF/C filter plates (pre-soaked in 1 mg/mL BSA for 2 hours). The bound activity was counted in a TopCount using Microscint-20. Saturation experiments were conducted with twelve concentrations of [^3H]CP 55,940 ranging from 0.01 to 8 nM. Competition experiments were conducted with 0.5 nM [^3H]CP 55,940 and five concentrations (0.01 nM to 10 μM) of displacing ligands. The addition of 10 μM unlabeled CP 55,940 (Tocris, Ellisville, Mo.) was used to assess nonspecific binding.

For another experiment, the target named is T2, rat CB2 (Rattus norvegicus, UniProt Q9QZN9).
T2 sequence (Q9QZN9 1-360): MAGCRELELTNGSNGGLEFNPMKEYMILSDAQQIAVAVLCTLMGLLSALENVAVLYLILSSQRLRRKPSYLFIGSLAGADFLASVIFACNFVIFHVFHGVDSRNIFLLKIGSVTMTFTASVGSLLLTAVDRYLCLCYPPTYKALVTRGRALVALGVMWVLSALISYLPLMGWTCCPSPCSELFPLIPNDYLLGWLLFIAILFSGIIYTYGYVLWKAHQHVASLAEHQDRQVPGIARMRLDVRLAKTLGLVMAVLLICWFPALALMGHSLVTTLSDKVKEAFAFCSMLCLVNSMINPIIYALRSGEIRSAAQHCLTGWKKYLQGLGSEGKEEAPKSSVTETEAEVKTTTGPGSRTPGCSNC
As to the kind of experiment: rat CB2 radioligand binding assay ([3H]CP 55,940 competition). Further details: expressed in transfected cells; host or cells: HEK293. The following applies: HEK293 membranes, 0.5 nM [3H]CP 55,940. As for the experimental part: as §1
HEK293 cells stably expressing rat CB2 receptors were grown until a confluent monolayer was formed. Briefly, the cells were harvested and homogenized in TE buffer (50 mM Tris-HCl, 1 mM MgCl2, and 1 mM EDTA) using a polytron for 2×10 second bursts in the presence of protease inhibitors, followed by centrifugation at 45,000×g for 20 minutes. The final membrane pellet was re-homogenized in storage buffer (50 mM Tris-HCl, 1 mM MgCl2, and 1 mM EDTA and 10% sucrose) and frozen at −78° C. until used. Saturation binding reactions were initiated by the addition of membrane preparation (protein concentration of 20 μg/well for rat CB2) into wells of a deep well plate containing [^3H]CP 55,940 (120 Ci/mmol, a nonselective CB agonist commercially available from Tocris) in assay buffer (50 mM Tris, 2.5 mM EDTA, 5 mM MgCl2, and 0.5 mg/mL fatty acid free BSA, pH 7.4). After 45 min incubation at 30° C., binding reaction was terminated by the addition of […] of cold assay buffer followed by rapid vacuum filtration through a UniFilter-96 GF/C filter plates (pre-soaked in 1 mg/mL BSA for 2 hours). The bound activity was counted in a TopCount using Microscint-20. Saturation experiments were conducted with twelve concentrations of [^3H]CP 55,940 ranging from 0.01 to 8 nM. Competition experiments were conducted with 0.5 nM [^3H]CP 55,940 and five concentrations of displacing ligands selected from the range of 0.01 nM to 10 μM. The addition of 10 μM unlabeled CP 55,940 (Tocris, Ellisville, Mo.) was used to assess nonspecific binding.

Where two headings read alike, the source gives them in different places. A value given as a limit tells only on which side of the number the result lay.

T1 sequence (P34972 whole entry): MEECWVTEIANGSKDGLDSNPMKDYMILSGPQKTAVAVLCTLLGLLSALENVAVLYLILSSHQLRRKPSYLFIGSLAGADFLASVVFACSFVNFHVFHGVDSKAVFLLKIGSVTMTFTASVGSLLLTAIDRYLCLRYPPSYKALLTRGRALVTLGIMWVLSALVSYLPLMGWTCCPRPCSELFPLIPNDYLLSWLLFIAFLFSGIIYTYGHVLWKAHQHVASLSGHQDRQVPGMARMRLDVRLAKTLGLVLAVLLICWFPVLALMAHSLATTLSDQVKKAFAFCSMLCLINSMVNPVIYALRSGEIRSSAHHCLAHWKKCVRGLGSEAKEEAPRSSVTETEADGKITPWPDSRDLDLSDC

As for `C/C(COc1ccc(C(F)(F)F)cc1C(=O)/N=c1\cc(C(C)(C)C)n(C)n1C[C@H]1CCCO1)=N\OC1CCCCO1` (stereo partly shown) [Example 79], the Ki was above 1000 nM at human CB2 receptors (read-out: human CB2 (Ki)) and 128 nM at rat CB2 (read-out: rat CB2 (Ki)).

In the case of `C=CC(O)COc1ccc(C(F)(F)F)cc1C(=O)/N=c1\cc(C(C)(C)C)n(C)n1C[C@H]1CCCO1` (stereo partly drawn) [Example 101, N-{(3E)-5-tert-butyl-1-methyl-2-[(2R)-tetrahydrofuran-2-ylmethyl]-1,2-dihydro-3 H-pyrazol-3-ylidene}-2-[(2-hydroxybut-3-enyl)oxy]-5-(trifluoromethyl)benzamide], the Ki at human CB2 receptors (human CB2 (Ki, nM)) was 1 nM; on rat CB2 (rat CB2 (Ki, nM)), 2.8 nM.

On to `CO[C@H]1CCO[C@@H]1COc1ccc(C(F)(F)F)cc1C(=O)/N=c1\cc(C(C)(C)C)n(C)n1C[C@H]1CCCO1` [Example 22], for which the values for the Ki on human CB2 receptors (read-out: human CB2 (Ki)) and at rat CB2 (read-out: rat CB2 (Ki)) were above 1000 nM and 424 nM, respectively.

Regarding `Cn1c(C(C)(C)C)c/c(=N\C(=O)c2cc(C(F)(F)F)ccc2OCCCCS(C)(=O)=O)n1C[C@H]1CCCO1` [Example 83, N-{(3E)-5-tert-butyl-1-methyl-2-[(2R)-tetrahydrofuran-2-ylmethyl]-1,2-dihydro-3 H-pyrazol-3-ylidene}-2-[4-(methylsulfonyl)butoxy]-5-(trifluoromethyl)benzamide], the Ki at human CB2 receptors (human CB2 (Ki, nM)) is above 1000 nM; at rat CB2 (rat CB2 (Ki, nM)), 305 nM.

In the case of `CC(=O)NCCOc1ccc(C(F)(F)F)cc1C(=O)/N=c1\cc(C(C)(C)C)n(C)n1CC1CCC1` [Example 130, 2-[2-(acetylamino)ethoxy]-N-[(3E)-5-tert-butyl-2-(cyclobutylmethyl)-1-methyl-1,2-dihydro-3H-pyrazol-3-ylidene]-5-(trifluoromethyl)benzamide], the Ki came out at 5 nM on human CB2 receptors (human CB2 (Ki, nM)) and 2.9 nM at rat CB2 (rat CB2 (Ki, nM)).

As to `CCCCn1/c(=N/C(=O)c2cc(C(F)(F)F)ccc2SCC(C)(C)O)cc(C(C)(C)C)n1C` [Example 137], the Ki at human CB2 receptors (human CB2 (Ki, nM)) was 55 nM; on rat CB2 (rat CB2 (Ki, nM)) it was 26 nM.

On to `CN1CCC[C@H]1COc1ccc(C(F)(F)F)cc1C(=O)/N=C1\OC(C(C)(C)C)CN1C[C@H]1CCCO1` (stereo partly drawn) [Example 73, N-{(2Z)-5-tert-butyl-3-[(2R)-tetrahydrofuran-2-ylmethyl]-1,3-oxazolidin-2-ylidene}-2-{[(2S)-1-methylpyrrolidin-2-yl]methoxy}-5-(trifluoromethyl)benzamide], for which the figures for the Ki at human CB2 receptors (read-out: human CB2 (Ki)) and at rat CB2 (read-out: rat CB2 (Ki)) were 291 nM and 230 nM, respectively.

On to `CC1=NOC(Cn2/c(=N/C(=O)c3cc(C(F)(F)F)ccc3OC[C@@H]3CCCO3)cc(C(C)(C)C)n2C)C1` (stereo partly drawn) [Example 31, N-{(3E)-5-tert-butyl-1-methyl-2-[(3-methyl-4,5-dihydroisoxazol-5-yl)methyl]-1,2-dihydro-3H-pyrazol-3-ylidene}-2-[(2S)-tetrahydrofuran-2-ylmethoxy]-5-(trifluoromethyl)benzamide], for which the Ki on human CB2 receptors (human CB2 (Ki, nM)) worked out at 239 nM; on rat CB2 (rat CB2 (Ki, nM)), 63 nM.

Turning to `CSCCCCOc1ccc(C(F)(F)F)cc1C(=O)/N=c1\cc(C(C)(C)C)n(C)n1C[C@H]1CCCO1` [Example 82, N-{(3E)-5-tert-butyl-1-methyl-2-[(2R)-tetrahydrofuran-2-ylmethyl]-1,2-dihydro-3 H-pyrazol-3-ylidene}-2-[4-(methylthio)butoxy]-5-(trifluoromethyl)benzamide], the Ki on human CB2 receptors (human CB2 (Ki, nM)) stood at 5.4 nM; on rat CB2 (rat CB2 (Ki, nM)) it was 2.6 nM.

Regarding `Cn1c(C(C)(C)C)c/c(=N\C(=O)c2cc(C(F)(F)F)ccc2OCC(C)(C)O)n1CC1CCOCC1` [Example 95, N-[(3E)-5-tert-butyl-1-methyl-2-(tetrahydro-2H-pyran-4-ylmethyl)-1,2-dihydro-3 H-pyrazol-3-ylidene]-2-(2-hydroxy-2-methylpropoxy)-5-(trifluoromethyl)benzamide], the Ki on human CB2 receptors (read-out: human CB2 (Ki)) is above 1000 nM; at rat CB2 (read-out: rat CB2 (Ki)), 331 nM.

Take `CCCCn1ccc(C(C)(C)C)c/c1=N\C(=O)c1cc(C(F)(F)F)ccc1OCC(C)(C)O` [Example 92, N-[(2E)-1-butyl-4-tert-butylpyridin-2(1H)-ylidene]-2-(2-hydroxy-2-methylpropoxy)-5-(trifluoromethyl)benzamide]: the Ki was found to be 73 nM on human CB2 receptors (human CB2 (Ki, nM)) and 47 nM at rat CB2 (rat CB2 (Ki, nM)).

With `Cn1c(C(C)(C)C)c/c(=N\C(=O)c2cc(C(F)(F)F)ccc2OCC(C)(C)O)n1CCCC(F)(F)F` [Example 135, N-[(3E)-5-tert-butyl-1-methyl-2-(4,4,4-trifluorobutyl)-1,2-dihydro-3H-pyrazol-3-ylidene]-2-(2-hydroxy-2-methylpropoxy)-5-(trifluoromethyl)benzamide], the Ki amounted to 23 nM at human CB2 receptors (human CB2 (Ki, nM)) and 5.5 nM on rat CB2 (rat CB2 (Ki, nM)).

On to `C[C@H](c1ccccc1)N1C[C@@H](COc2ccc(C(F)(F)F)cc2C(=O)/N=c2\cc(C(C)(C)C)n(C)n2C[C@H]2CCCO2)OC1=O` [Example 44, N-{(3E)-5-tert-butyl-1-methyl-2-[(2R)-tetrahydrofuran-2-ylmethyl]-1,2-dihydro-3H-pyrazol-3-ylidene}-2-({(5 S)-2-oxo-3-[(1R)-1-phenylethyl]-1,3-oxazolidin-5-yl}methoxy)-5-(trifluoromethyl)benzamide], for which the Ki at human CB2 receptors (human CB2 (Ki, nM)) was above 1000 nM; on rat CB2 (rat CB2 (Ki, nM)) it was 408 nM.

Turning to `CC(C)(O)COc1ccc(C(F)(F)F)cc1C(=O)/N=c1\sc(C(C)(C)C)nn1CC1CCO1` (stereo not shown) [Example 96, N-[(2Z)-5-tert-butyl-3-(oxetan-2-ylmethyl)-1,3,4-thiadiazol-2(3H)-ylidene]-2-(2-hydroxy-2-methylpropoxy)-5-(trifluoromethyl)benzamide], the Ki at human CB2 receptors (human CB2 (Ki, nM)) is 9.4 nM; on rat CB2 (rat CB2 (Ki, nM)) it was 6.1 nM.

With `Cn1c(C(C)(C)C)c/c(=N\C(=O)c2cc(C(F)(F)F)ccc2OCC2(C)COC2)n1C[C@H]1CCCO1` [Example 19, N-{(3E)-5-tert-butyl-1-methyl-2-[(2R)-tetrahydrofuran-2-ylmethyl]-1,2-dihydro-3H-pyrazol-3-ylidene}-2-[3-methyloxetan-3-methoxyl]-5-(trifluoromethyl)benzamide], the Ki was above 1000 nM at human CB2 receptors (human CB2 (Ki, nM)) and 323 nM at rat CB2 (rat CB2 (Ki, nM)).

Consider `Cn1c(C(C)(C)C)c/c(=N\C(=O)c2cc(C(F)(F)F)ccc2OC[C@@H]2CCN2S(C)(=O)=O)n1C[C@H]1CCCO1` [Example 67, N-{(3E)-5-tert-butyl-1-methyl-2-[(2R)-tetrahydrofuran-2-ylmethyl]-1,2-dihydro-3H-pyrazol-3-ylidene}-2-{[(2S)-1-(methylsulfonyl)azetidin-2-yl]methoxy}-5-(trifluoromethyl)benzamide], for which the Ki is above 1000 nM at human CB2 receptors (human CB2 (Ki, nM)) and 70 nM at rat CB2 (rat CB2 (Ki, nM)).

Take `Cn1c(C(C)(C)C)c/c(=N\C(=O)c2cc(Br)ccc2OCC(C)(C)O)n1C[C@H]1CCCO1` [Example 128, 5-bromo-N-{(3E)-5-tert-butyl-1-methyl-2-[(2R)-tetrahydrofuran-2-ylmethyl]-1,2-dihydro-3H-pyrazol-3-ylidene}-2-(2-hydroxy-2-methylpropoxy)benzamide]: the Ki on human CB2 receptors (human CB2 (Ki, nM)) came to 15 nM; at rat CB2 (rat CB2 (Ki, nM)), 4.9 nM.

Source of the values: US8188135B2, “Compounds as cannabinoid receptor ligands” (priority 2008, dated 2012).
